From ChEMBL document CHEMBL1127146, “Synthesis and antitumor activity of a new class of pyrazolo[4,3-e]pyrrolo[1,2-a][1,4]diazepinone analogs of pyrrolo[1,4]benzodiazepines (PBDs)” (Bioorg Med Chem Lett, 1993)
The source made the active and inactive calls. The calls are words filed in the database; no cut-off is given here.

test system: L1210; assay: Antitumor activity was evaluated in vitro on a L1210 tumor cell line; type: functional, cell-based; details: Mus musculus

IC50 [µM]	Structure (SMILES)
22.4	Cc1nn(C)c2c1N=C[C@@H]1CCCN1C2=O
8.84	Cc1c2c(nn1C)C(=O)N1CCC[C@H]1C=N2

test system: L1210; assay: Antitumor activity was evaluated in vitro on a L1210 tumor cell line; IA means inactive; type: functional, cell-based; details: Mus musculus

Structure (SMILES)	Activity
Cc1c2c(nn1C)C(=O)N1CCC[C@H]1CN2	inactive
CSC1=Nc2c(nn(C)c2C)C(=O)N2CCC[C@@H]12	inactive
Cc1nn(C)c2c1NC[C@@H]1CCCN1C2=O	inactive
CSC1=Nc2c(C)nn(C)c2C(=O)N2CCC[C@@H]12	inactive
